Patent US8906929B2, “Inhibitors of human immunodeficiency virus replication” (priority 2012, dated 2014)
Where two headings read alike, the source gives them in different places.

How the values were obtained:
[1] = rcm bond, DCE
[2] = rcm bond, Hoveyda-Grubbs II, DCE

COC(=O)[C@@H](OC(C)(C)C)c1c(C)nc2cc3nn2c1-c1ccc2c(c1)C(CC=CCOc1ccccc1-c1cccc-3c1)CCO2 (some centres unmarked)
ring closure, isolated yield ([1]; from C=CCOc1ccccc1-c1cccc(-c2cc3nc(C)c([C@H](OC(C)(C)C)C(=O)OC)c(-c4ccc5c(c4)C(CC=C)CCO5)n3n2)c1, 18-membered ring, Hoveyda-Grubbs II, 2.06 mM, 70.0 °C, 3.0 h): 84%

COC(=O)[C@@H](OC(C)(C)C)c1c(C)nc2cc3nn2c1-c1ccc2c(c1Cl)N(CC=CCCc1ccccc1-c1cccc-3c1)CCO2
ring closure, isolated yield ([1]; from C=CCCc1ccccc1-c1cccc(-c2cc3nc(C)c([C@H](OC(C)(C)C)C(=O)OC)c(-c4ccc5c(c4Cl)N(CC=C)CCO5)n3n2)c1, 18-membered ring, Hoveyda-Grubbs II, 70.0 °C, 4.0 h): 73%
ring closure, yield after HPLC ([2]; from C=CCCc1ccccc1-c1cccc(-c2cc3nc(C)c([C@H](OC(C)(C)C)C(=O)OC)c(-c4ccc5c(c4Cl)N(CC=C)CCO5)n3n2)c1, 18-membered ring, 28.0 mM, 50.0 °C, 1.0 h): 26.5%

COC(=O)[C@@H](OC(C)(C)C)c1c(C)nc2cc3nn2c1-c1ccc2c(c1Cl)N(CC=CCOc1cccc(c1)-c1cccc-3c1)CCO2
ring closure, yield after HPLC ([2]; from C=CCOc1cccc(-c2cccc(-c3cc4nc(C)c([C@H](OC(C)(C)C)C(=O)OC)c(-c5ccc6c(c5Cl)N(CC=C)CCO6)n4n3)c2)c1, 19-membered ring, then NaOH, 29.0 mM, 50.0 °C, 5.0 h, 2 steps): 26.6%

COC(=O)[C@@H](OC(C)(C)C)c1c(C)nc2cc3nn2c1N1CCC(C)(CC1)COCC=CCCc1ccccc1-c1cccc-3c1
ring closure, isolated yield ([1]; from C=CCCc1ccccc1-c1cccc(-c2cc3nc(C)c([C@H](OC(C)(C)C)C(=O)OC)c(N4CCC(C)(COCC=C)CC4)n3n2)c1, 20-membered ring, Hoveyda-Grubbs II (10 mol%), 1.23 mM, 70.0 °C, 3.0 h): 98%

COC(=O)[C@@H](OC(C)(C)C)c1c(C)nc2cc3nn2c1N1CCC(C)(CC1)OCC=CC(C)Oc1ccccc1-c1cccc-3c1 (some centres unmarked)
ring closure, yield after HPLC ([2]; from C=CCOC1(C)CCN(c2c([C@H](OC(C)(C)C)C(=O)OC)c(C)nc3cc(-c4cccc(-c5ccccc5OC(C)C=C)c4)nn23)CC1, 19-membered ring, 1.28 mM, 2.0 h): 98%

COC(=O)[C@@H](OC(C)(C)C)c1c(C)nc2cc3nn2c1N1CCC(C)(CC1)OCC=CC[C@@H](C)Oc1ccccc1-c1cccc-3c1
ring closure, isolated yield ([1]; from C=CCOC1(C)CCN(c2c([C@H](OC(C)(C)C)C(=O)OC)c(C)nc3cc(-c4cccc(-c5ccccc5O[C@H](C)CC=C)c4)nn23)CC1, 20-membered ring, Hoveyda-Grubbs II, 1.43 mM, 2.0 h): 100%

COC(=O)[C@@H](OC(C)(C)C)c1c(C)nc2cc3nn2c1N1CCC(C)(CC1)OCC=CC[C@H](C)Oc1ccc(F)cc1-c1cccc-3c1
ring closure, isolated yield ([1]; from C=CCOC1(C)CCN(c2c([C@H](OC(C)(C)C)C(=O)OC)c(C)nc3cc(-c4cccc(-c5cc(F)ccc5O[C@@H](C)CC=C)c4)nn23)CC1, 20-membered ring, Hoveyda-Grubbs II (20 mol%), then NaBH4/MeOH, 5.0 mM, 80.0 °C, 1.5 h, 2 steps): 38%

COC(=O)[C@@H](OC(C)(C)C)c1c(C)nc2cc3nn2c1N1CCC(C)(CC1)OCC=CC[C@H](C)Oc1ccccc1-c1cccc-3c1
ring closure, isolated yield ([1]; from C=CCOC1(C)CCN(c2c([C@H](OC(C)(C)C)C(=O)OC)c(C)nc3cc(-c4cccc(-c5ccccc5O[C@@H](C)CC=C)c4)nn23)CC1, 20-membered ring, Hoveyda-Grubbs II, 1.5 mM, 2.0 h): 70%

Methyl (2S)-2-(tert-butoxy)-2-[(23E)-4,27-dimethyl-21,26-dioxa-1,5,7,8-tetraazahexacyclo[25.2.2.1^6,^9.1^10,^14.0^2,^7.0^15,^20]tritriaconta-2,4,6(33),8,10(32),11,13,15(20),16,18,23-undecaen-3-yl]acetate
ring closure, isolated yield ([1]; 19-membered ring, Hoveyda-Grubbs II, 1.3 mM): 100%

Methyl (2S)-2-(tert-butoxy)-2-[(24E/Z)-4,17,23,28-tetramethyl-21,27-dioxa-1,5,7,8-tetraazahexacyclo[26.2.2.1^6,^9.1^10,^14.0^2,^7.0^15,^20]tetratriaconta-2,4,6(34),8,10(33), 11,13,15 (20),16,18,24-undecaen-3-yl]acetate
ring closure, isolated yield ([1]; 20-membered ring, Hoveyda-Grubbs II (7 mol%), 4.0 mM, 85.0 °C): 70.6%
